# Paper PMC3596469 (European journal of pharmaceutical sciences : official …, 2013)
# Where two headings read alike, the source gives them in different places.
# Key:
# [1] = target: T1, Human sEH (Homo sapiens, UniProt P34913); assay: Radioactive sEH inhibition assay; format: biochemical; conditions: read-out: IC50 Human sEH (value in parentheses); [3H] t-DPPO as substrate
# T1 sequence (P34913 1-555): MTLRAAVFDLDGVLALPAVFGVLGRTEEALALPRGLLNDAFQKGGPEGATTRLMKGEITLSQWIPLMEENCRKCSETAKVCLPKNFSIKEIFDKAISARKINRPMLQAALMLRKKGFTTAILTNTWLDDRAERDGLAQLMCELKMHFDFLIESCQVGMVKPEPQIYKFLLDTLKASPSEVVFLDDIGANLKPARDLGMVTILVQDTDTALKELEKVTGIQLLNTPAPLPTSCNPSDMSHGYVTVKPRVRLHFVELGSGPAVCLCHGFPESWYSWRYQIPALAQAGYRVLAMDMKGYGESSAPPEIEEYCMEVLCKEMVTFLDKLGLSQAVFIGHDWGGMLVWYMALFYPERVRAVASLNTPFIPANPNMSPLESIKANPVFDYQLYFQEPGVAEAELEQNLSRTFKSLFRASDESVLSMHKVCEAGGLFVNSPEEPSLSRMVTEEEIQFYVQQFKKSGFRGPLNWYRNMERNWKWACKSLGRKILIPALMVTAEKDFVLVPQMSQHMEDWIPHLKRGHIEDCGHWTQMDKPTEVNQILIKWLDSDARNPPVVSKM
# [2] = mouse, in vivo, po
# [3] = mouse, in vivo, po, 1 mg/kg; cited from earlier work
# [4] = for oral bioavailability: from AUC values; for blood levels at the lowest oral dose: oral 0.1 mg/kg, 24 h sampling
# [5] = tested on: LPS-induced release of inflammatory cytokines in plasma; assay: Plasma cytokines in LPS-challenged murine model; format: in vivo, Male Swiss Webster mice
# [6] = tested on: plasma epoxides and diols (biomarker of sEH action); assay: Plasma oxylipin profile; format: in vivo, Male Swiss Webster mice
# [7] = tested on: LPS-challenged mice; assay: Food intake and body weight in LPS-challenged murine model; format: in vivo, Male Swiss Webster mice; conditions: for animals' appetite, 1st day post LPS challenge: oral administration
# [8] = PK after i.v. injection in mice, 2-compartmental analysis; conditions: i.v. 0.01 mg/kg
# [9] = mice, oral gavage 0.1 mg/kg, blood
# [10] = mice, oral gavage 0.3 mg/kg, blood
# [11] = mice, oral gavage 1.0 mg/kg, blood
# [12] = mice, oral gavage 3.0 mg/kg, blood
# [13] = LPS 3 mg/kg + inhibitor 3 mg/kg single dose, terminated 48 h
# [14] = LPS 3 mg/kg + inhibitor 3 mg/kg, terminated 24 h
# [15] = male, Swiss Webster, mouse, whole blood, po, 0.1 mg/kg
# [16] = male, Swiss Webster, mouse, whole blood, po, 0.3 mg/kg
# [17] = male, Swiss Webster, mouse, whole blood, po, 1 mg/kg
# [18] = male, Swiss Webster, mouse, whole blood, po, 3 mg/kg
compound,measurement,setting,value
1-chlorophenyl-3-(1-propionylpiperidin-4-yl)urea [CPPU],IC50,[1],280 nM
same,AUCt,[2]; 0.1 mg/kg,2.3 ± 0.4 µM·h
same,MRT,[2]; 0.1 mg/kg,13.1 ± 13.5 h
same,AUCt,[2]; 0.3 mg/kg,6.1 ± 1.7 µM·h
same,MRT,[2]; 0.3 mg/kg,16.4 ± 6.3 h
same,AUCt,[2]; 1 mg/kg,31.7 ± 18.4 µM·h
same,MRT,[2]; 1 mg/kg,17.2 ± 7.3 h
same,AUCt,[2]; 3 mg/kg,140 ± 93 µM·h
same,MRT,[2]; 3 mg/kg,17.1 ± 1.3 h
"CC(=O)N1CCC(NC(=O)NC23CC4CC(CC(C4)C2)C3)CC1 [APAU, 1-(1-acetypiperidin-4-yl)-3-adamantanylurea]",AUCt,[3],1.4±0.3 0.35±0.15 uM•h
same,MRT,[3],20±4.2 22.2±4.3 h
"O=C(Nc1ccc(OC(F)(F)F)cc1)NC1CCN(C(=O)C2CC2)CC1 [TCPU, 1-(4-trifluoro-methoxy-phenyl)-3-(1-cyclopropanecarboxylpiperidin-4-yl)urea]",AUCt,"[4]; mice, oral gavage 0.1 mg/kg",2.2 ± 1.1 µM·h
same,MRT,"[4]; mice, oral gavage 0.1 mg/kg",18.9 ± 6.6 h
same,Tmax,"[4]; mice, oral gavage 0.1 mg/kg",5.3 ± 1.2 h
same,Cmax,[4]; [9],270 ± 120 nM
same,AUCt,"[4]; mice, oral gavage 0.3 mg/kg",16.6 ± 8.8 µM·h
same,MRT,"[4]; mice, oral gavage 0.3 mg/kg",16.9 ± 5.4 h
same,Cmax,[4]; [10],1680 nM
same,AUCt,"[4]; mice, oral gavage 1.0 mg/kg",43.8 ± 5.1 µM·h
same,MRT,"[4]; mice, oral gavage 1.0 mg/kg",24.0 ± 1.8 h
same,Tmax,"[4]; mice, oral gavage 1.0 mg/kg",3.2 ± 2.2 h
same,Cmax,[4]; [11],2560 nM
same,AUCt,"[4]; mice, oral gavage 3.0 mg/kg",94.3 ± 8.0 µM·h
same,MRT,"[4]; mice, oral gavage 3.0 mg/kg",32.1 ± 5.6 h
same,Tmax,"[4]; mice, oral gavage 3.0 mg/kg",3.9 ± 2.5 h
same,Cmax,[4]; [12],5160 nM
"CCC(=O)N1CCC(NC(=O)Nc2ccc(OC(F)(F)F)cc2)CC1 [TPPU, 1-(4-trifluoro-methoxy-phenyl)-3-(1-propionylpiperidin-4-yl)urea]",IL-6 in plasma,[5]; [13],9 ± 0.5 pg/mL
same,IL-10 in plasma,[5]; [13],7.7 ± 0.5 pg/mL
same,INF-γ in plasma,[5]; [13],2.0 ± 0.5 pg/mL
same,MCP-1 in plasma,[5]; [13],260 ± 50 pg/mL
same,TNF-α in plasma,[5]; [13],11 ± 1 pg/mL
same,IL-6 in plasma,[5]; [14],118 ± 65 pg/mL
same,IL-10 in plasma,[5]; [14],8.7 ± 0.4 pg/mL
same,INF-γ in plasma,[5]; [14],9.7 ± 3.0 pg/mL
same,MCP-1 in plasma,[5]; [14],1970 ± 900 pg/mL
same,TNF-α in plasma,[5]; [14],28 ± 14 pg/mL
same,reduction of cytokine or chemokine release one day after treatment,[5]; LPS-challenged mice,Neither the administration of TPPU nor the t-AUCB treatment demonstrated a beneficial effect
same,plasma levels of both EETs and EpOMEs,"[6]; 1- and 2-day post treatment, LPS-challenged mice",significantly increased
same,plasma levels of both DHOMEs and DHETs,[6]; 2-day post LPS treatment,significantly decreased
same,animal's appetite (pilot study),[7]; 1 mg/kg,no favorable effect was observed
same,animal's appetite at 2 days post treatment (pilot study),[7]; oral 3 mg·kg^-1,improved
same,"animals' appetite, 1st day post LPS challenge",[7]; LPS-challenged mice,did not improve
same,"animals' appetite, 2nd day post LPS challenge","[7]; oral, TPPU 3 mg/kg once, t-AUCB 3 mg/kg twice, LPS-challenged mice",significantly improved
same,AUCt,[8],3.5 ± 0.4 µM·h
same,Cl (clearance),[8],20 ± 1.7 mL/min/kg
same,T1/2β (half life of elimination phase),[8],>24 h
same,Vdss (volume distribution at steady state),[8],4.8 ± 1.8 L/kg
same,oral bioavailability,"[4]; mice, oral 0.1 mg/kg vs i.v. 0.01 mg/kg",43 ± 25%
same,blood levels at the lowest oral dose,[4]; mice,above their in vitro IC50 values throughout the sampling time
same,oral bioavailability,"[4]; mice, oral 0.3 mg/kg vs i.v. 0.01 mg/kg",36 ± 5%
same,oral bioavailability,"[4]; mice, oral 1.0 mg/kg vs i.v. 0.01 mg/kg",31 ± 2%
same,oral bioavailability,"[4]; mice, oral 3.0 mg/kg vs i.v. 0.01 mg/kg",18 ± 3%
same,MRT,"[4]; mice, oral gavage 0.1 mg/kg",56.9 ± 5.4 h
same,Tmax,"[4]; mice, oral gavage 0.1 mg/kg",2 ± 0 h
same,Cmax,[4]; [9],445 ± 200 nM
same,MRT,"[4]; mice, oral gavage 0.3 mg/kg",69.5 ± 2.2 h
same,Tmax,"[4]; mice, oral gavage 0.3 mg/kg",2 ± 0 h
same,Cmax,[4]; [10],1560 nM
same,MRT,"[4]; mice, oral gavage 1.0 mg/kg",26.8 ± 2.2 h
same,Tmax,"[4]; mice, oral gavage 1.0 mg/kg",2.7 ± 1.2 h
same,Cmax,[4]; [11],5370 nM
same,MRT,"[4]; mice, oral gavage 3.0 mg/kg",24.0 ± 0.2 h
same,Tmax,"[4]; mice, oral gavage 3.0 mg/kg",3.7 ± 1.8 h
same,Cmax,[4]; [12],7100 nM
"CS(=O)(=O)N1CCC(NC(=O)Nc2ccc(OC(F)(F)F)cc2)CC1 [TUPS, 1-(1-methanesulfonyl-piperidin-4-yl)-3-(4-trifluoromethoxy-phenyl)-urea]",Cmax,[4]; [15],< 0.4 nM
same,AUC(0-t),[4]; [16],5.3 µM·h
same,MRT,[4]; [16],21.5 h
same,AUC(0-t),[4]; [17],24.2 µM·h
same,Cmax,[4]; [17],1650 nM
same,MRT,[4]; [17],17.4 h
same,AUC(0-t),[4]; [18],48.5 µM·h
same,Cmax,[4]; [18],2860 nM
same,MRT,[4]; [18],22.7 h
same,blood levels at the lowest oral dose,[4]; mice,under the respective detection limit
"O=C(NC12CC3CC(CC(C3)C1)C2)N[C@H]1CC[C@H](Oc2ccc(C(=O)O)cc2)CC1 [t-AUCB, trans-4-[4-(3-adamantan-1-yl-ureido)-cyclohexyloxy]-benzoic acid, reference compound]","animals' appetite, 1st day post LPS challenge",[7]; LPS-challenged mice,did not improve
"O=C(Nc1ccc(OC(F)(F)F)cc1)N[C@H]1CC[C@H](Oc2ccc(C(=O)O)cc2)CC1 [t-TUCB, trans-4-[4-[3-(4-Trifluoromethoxy-phenyl)-Ureido]-cyclohexyloxy]-Benzoic acid]",Cmax,[4]; [15],< 0.4 nM
same,AUC(0-t),[4]; [16],0.4 µM·h
same,Cmax,[4]; [16],45 nM
same,MRT,[4]; [16],12.6 h
same,Tmax,[4]; [16],6 h
same,AUC(0-t),[4]; [17],4.5 µM·h
same,Cmax,[4]; [17],410 nM
same,MRT,[4]; [17],12.6 h
same,Tmax,[4]; [17],5.9 h
same,AUC(0-t),[4]; [18],16.1 µM·h
same,Cmax,[4]; [18],2120 nM
same,MRT,[4]; [18],8 h
same,Tmax,[4]; [18],2.6 h
same,blood levels at the lowest oral dose,[4]; mice,under the respective detection limit
